Data on 24 molecules can be found in PubChem BioAssay (NCI).

Each structure is given as a SMILES string. Values joined by “and” are separate entries in the source; they are usually repeats but may differ in a detail not shown here. Equal entries are not always repeated.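 1) Cells in 96-well plates. 2) Compound, 48 h, 5 concentrations. 3) Linear interpolation between surrounding doses. 4) Unreached endpoint = highest concentration. GI50 is the concentration that inhibits growth by half. Definition used: TGI = concentration required for complete inhibition of growth.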 Where only a bound is given, the exact number is not on record here.

The first experiment has as its system COLO 205 colon. Briefly: NCI-60 cell line screen, 48 h.
For `Cc1cc(S(=O)(=O)N/N=C(\Sc2cc(Cl)c(C)cc2S(N)(=O)=O)c2ccc(Cl)cc2)c(Cl)cc1Cl`, the GI50 was over 100 µM and the TGI was over 100 µM.

`COc1ccc(C(=O)COc2cccc(/C=C3\Oc4ccc5ccccc5c4C3=O)c2)cc1`: the GI50 was 2.45 µM and the TGI turned out to be 6.94 µM.

Regarding `COc1ccc(-c2oc3cc(O)c(OC)c(O)c3c(=O)c2OC)cc1O`, the GI50 is 5.85 µM and the TGI turned out to be 28.8 µM.

`Cc1cc(N/N=C/c2nc(-c3ccc(Br)cc3)oc2C)c2cc(Br)ccc2n1`: the GI50 is 4.38 µM and the TGI amounted to 22.1 µM.

Take `Cc1cc(C2CC(O)C(CO)O2)cc2c(=O)[nH]c(N)nc12` (configuration not stated): the GI50 was over 100 µM and the TGI is over 100 µM.

Regarding `COc1cc(C2=C(c3cn(C)c4ccccc34)COC2=O)cc(OC)c1OC`, the GI50 was 0.0648 µM and the TGI was found to be 1.28 µM.

As to `CC(C)N=c1cc2n(-c3ccc(Cl)cc3)c3ccccc3nc-2cc1Nc1ccc(Cl)cc1`, the GI50 was 1.17 µM and 1.41 µM; the TGI is 4.21 µM and 5.03 µM.

For the molecule `Cc1cc2c(cc1Cl)SC(=Nc1ccc(Cl)cc1)N(S(=O)(=O)c1ccccc1)S2(=O)=O`, the GI50 was 2.89 µM and the TGI was over 100 µM.

`Oc1cn(-c2ccc(Cl)cc2)nc1-c1n[nH]c(=S)n1C1CCCCC1`: the GI50 was 64.8 µM and the TGI is over 100 µM.

On to `Cn1cc(C2=C(c3cn(CCCCCN)c4ccccc34)C(=O)NC2=O)c2ccccc21`, for which the GI50 was 6.06 µM and the TGI was over 21 µM.

On to `CCCCC1(CN2CCOCC2)S/C(=N/c2nc(CC(=O)OCC)cs2)NC1=O` (configuration not stated), for which the GI50 is 30.1 µM and the TGI was over 100 µM.

For the next experiment, the system named is NCI-H460 lung. Briefly: NCI-60 cell line screen, 48 h.
As to `N#C/C(=C/N1CCN(C(=O)c2ccco2)C1=S)C(=O)c1ccccc1`, the GI50 is 9.52 µM and the TGI was over 100 µM.

As for `Nc1nc(SN=Nc2ccc(S(N)(=O)=O)cc2)c2[nH]cnc2n1`, the GI50 is 0.384 µM and the TGI stood at 13 µM.

As for `CN(CCCNC(=O)Cc1ccc2ccc3cccc4ccc1c2c34)CCCNc1cc(-c2ccc3ccccc3c2)nc2ccccc12`, the GI50 was 1.65 µM and the TGI was determined as 3.61 µM.

For `COCCOc1cnc2ccn([C@H](C)c3nnc4c(F)cc(-c5cnn(C)c5)cn34)c(=O)c2c1`, the GI50 was over 100 µM and the TGI was over 100 µM.

Regarding `CCc1ccccc1NC(=O)c1sc2nc3c(cc2c1N)C(=O)CCC3`, the GI50 was 0.367 µM and the TGI was over 100 µM.

`CC(C)CNC(=O)O` returned a TGI of over 100 µM.

As to `C[C@]12CC[C@@H]3c4ccc(O)cc4CC[C@H]3[C@@H]1CC[C@@H]2NS(=O)(=O)c1cccc(F)c1`, the GI50 was 2.72 µM and the TGI is 7.18 µM.

As to `CCOC(=O)c1c[nH]c2oc(/C=N/N3CC(CN4CCOCC4)OC3=O)cc2c1=O` (configuration not stated), the TGI is over 100 µM.

As to `CCC(C)(C)c1ccc(OCCCCCCN2CCNCC2)cc1`, the GI50 was 1.94 µM and the TGI is 3.87 µM.

Turning to `O=C(Nc1ccc(-n2cc(-c3ccncc3)c(-c3ccc(Cl)c(O)c3)n2)cc1)Nc1ccc(Cl)c(C(F)(F)F)c1`, the GI50 was 1.7 µM and the TGI was found to be 3.4 µM.

With `Cc1cc(S(=O)(=O)N/N=C(\Sc2cc(Cl)c(C)cc2S(N)(=O)=O)c2ccc(Cl)cc2)c(Cl)cc1Cl`, the GI50 is over 100 µM and the TGI was over 100 µM.

For the molecule `COc1ccc(C(=O)COc2cccc(/C=C3\Oc4ccc5ccccc5c4C3=O)c2)cc1`, the GI50 was 20.6 µM and the TGI worked out at 52.6 µM.

With `COc1ccc(-c2oc3cc(O)c(OC)c(O)c3c(=O)c2OC)cc1O`, the GI50 is 0.138 µM and the TGI was found to be 4.34 µM.

Take `Cc1cc(C2CC(O)C(CO)O2)cc2c(=O)[nH]c(N)nc12` (configuration not stated): the GI50 was over 100 µM and the TGI was over 100 µM.

For `COc1cc(C2=C(c3cn(C)c4ccccc34)COC2=O)cc(OC)c1OC`, the GI50 was 0.0532 µM and the TGI worked out at 1.68 µM.

Take `CC(C)N=c1cc2n(-c3ccc(Cl)cc3)c3ccccc3nc-2cc1Nc1ccc(Cl)cc1`: the GI50 was 0.778 µM and the TGI was over 50 µM.

Consider `Cc1cc2c(cc1Cl)SC(=Nc1ccc(Cl)cc1)N(S(=O)(=O)c1ccccc1)S2(=O)=O`, for which the GI50 is 11.8 µM and the TGI is 29.2 µM.

For the molecule `Oc1cn(-c2ccc(Cl)cc2)nc1-c1n[nH]c(=S)n1C1CCCCC1`, the GI50 is 0.334 µM and the TGI was over 100 µM.

As for `Cc1ccc(S(=O)(=O)NCCNc2nccc(-c3c(-c4ccc(F)cc4)nc4sccn34)n2)cc1`, the GI50 was 3.5 µM and the TGI was over 100 µM.

For `Cn1cc(C2=C(c3cn(CCCCCN)c4ccccc34)C(=O)NC2=O)c2ccccc21`, the GI50 was 9.73 µM and the TGI was over 25 µM.

With `C=C1C(=O)O[C@H]2/C=C(/C)C3=CC(=O)[C@@](C)(C[C@@H](OC(=O)/C(C)=C\C)C12)O3` (some centres not stated), the TGI was determined as 11.8 µM.

As for `O=C(CSC(c1ccccc1)c1ccccc1)N/N=C/c1ccc(Cl)cc1Cl`, the GI50 is 20.1 µM and the TGI came out at 49.8 µM.

The next experiment has as its system ACHN renal. Briefly: NCI-60 cell line screen, 48 h.
For `N#C/C(=C/N1CCN(C(=O)c2ccco2)C1=S)C(=O)c1ccccc1`, the GI50 is 16.6 µM and the TGI stood at 72.5 µM.

Take `Nc1nc(SN=Nc2ccc(S(N)(=O)=O)cc2)c2[nH]cnc2n1`: the GI50 was 1.6 µM and the TGI is over 100 µM.

Turning to `CN(CCCNC(=O)Cc1ccc2ccc3cccc4ccc1c2c34)CCCNc1cc(-c2ccc3ccccc3c2)nc2ccccc12`, the GI50 is 1.42 µM and the TGI was 2.87 µM.

As for `COCCOc1cnc2ccn([C@H](C)c3nnc4c(F)cc(-c5cnn(C)c5)cn34)c(=O)c2c1`, the GI50 was over 100 µM and the TGI was over 100 µM.

`CCc1ccccc1NC(=O)c1sc2nc3c(cc2c1N)C(=O)CCC3`: the GI50 was 1.17 µM and the TGI is over 100 µM.

On to `CC(C)CNC(=O)O`, for which the TGI is over 100 µM.

As for `C[C@]12CC[C@@H]3c4ccc(O)cc4CC[C@H]3[C@@H]1CC[C@@H]2NS(=O)(=O)c1cccc(F)c1`, the GI50 was 2.71 µM and the TGI worked out at 8.66 µM.

With `CCOC(=O)c1c[nH]c2oc(/C=N/N3CC(CN4CCOCC4)OC3=O)cc2c1=O` (configuration not stated), the TGI was over 100 µM.

Regarding `CCC(C)(C)c1ccc(OCCCCCCN2CCNCC2)cc1`, the GI50 was 2.19 µM and the TGI stood at 5.45 µM.

For the molecule `O=C(Nc1ccc(-n2cc(-c3ccncc3)c(-c3ccc(Cl)c(O)c3)n2)cc1)Nc1ccc(Cl)c(C(F)(F)F)c1`, the GI50 was 1.78 µM and the TGI turned out to be 4.94 µM.

As for `Cc1cc(S(=O)(=O)N/N=C(\Sc2cc(Cl)c(C)cc2S(N)(=O)=O)c2ccc(Cl)cc2)c(Cl)cc1Cl`, the GI50 was 25.6 µM and the TGI was 73.9 µM.

In the case of `COc1ccc(C(=O)COc2cccc(/C=C3\Oc4ccc5ccccc5c4C3=O)c2)cc1`, the GI50 was 15.2 µM and the TGI is 29 µM.

As for `COc1ccc(-c2oc3cc(O)c(OC)c(O)c3c(=O)c2OC)cc1O`, the GI50 was 1.52 µM and the TGI was over 100 µM.

Consider `Cc1cc(N/N=C/c2nc(-c3ccc(Br)cc3)oc2C)c2cc(Br)ccc2n1`, for which the GI50 was 2.86 µM and the TGI was 8.05 µM.

Turning to `CC(C)N=c1cc2n(-c3ccc(Cl)cc3)c3ccccc3nc-2cc1Nc1ccc(Cl)cc1`, the GI50 was 1.18 µM and 2.18 µM; the TGI was over 100 µM.

As for `Cc1cc2c(cc1Cl)SC(=Nc1ccc(Cl)cc1)N(S(=O)(=O)c1ccccc1)S2(=O)=O`, the GI50 was 1.95 µM and the TGI worked out at 10.5 µM.

For `Cc1ccc(S(=O)(=O)NCCNc2nccc(-c3c(-c4ccc(F)cc4)nc4sccn34)n2)cc1`, the GI50 was 2.3 µM and the TGI is over 100 µM.

Take `Cn1cc(C2=C(c3cn(CCCCCN)c4ccccc34)C(=O)NC2=O)c2ccccc21`: the GI50 was 10.9 µM and the TGI was over 25 µM.

Consider `CCCCC1(CN2CCOCC2)S/C(=N/c2nc(CC(=O)OCC)cs2)NC1=O` (configuration not stated), for which the GI50 is 33.9 µM and the TGI is over 100 µM.

Turning to `C=C1C(=O)O[C@H]2/C=C(/C)C3=CC(=O)[C@@](C)(C[C@@H](OC(=O)/C(C)=C\C)C12)O3` (some centres not stated), the TGI was found to be 0.958 µM.

In the case of `O=C(CSC(c1ccccc1)c1ccccc1)N/N=C/c1ccc(Cl)cc1Cl`, the GI50 is 26.6 µM and the TGI was found to be 66.3 µM.

In another experiment the test system is EKVX NSCLC. Briefly: NCI-60 cell line screen, 48 h.
As to `N#C/C(=C/N1CCN(C(=O)c2ccco2)C1=S)C(=O)c1ccccc1`, the GI50 was 17.8 µM and the TGI turned out to be 48 µM.

`Nc1nc(SN=Nc2ccc(S(N)(=O)=O)cc2)c2[nH]cnc2n1`: the GI50 was 0.714 µM and the TGI was over 100 µM.

`COCCOc1cnc2ccn([C@H](C)c3nnc4c(F)cc(-c5cnn(C)c5)cn34)c(=O)c2c1`: the GI50 is over 100 µM and the TGI was over 100 µM.

Turning to `CC(C)CNC(=O)O`, the TGI is over 100 µM.

On to `CCOC(=O)c1c[nH]c2oc(/C=N/N3CC(CN4CCOCC4)OC3=O)cc2c1=O` (configuration not stated), for which the TGI was over 100 µM.

Consider `CCC(C)(C)c1ccc(OCCCCCCN2CCNCC2)cc1`, for which the GI50 is 9.73 µM and the TGI was 27.1 µM.

Regarding `O=C(Nc1ccc(-n2cc(-c3ccncc3)c(-c3ccc(Cl)c(O)c3)n2)cc1)Nc1ccc(Cl)c(C(F)(F)F)c1`, the GI50 is 3.05 µM and the TGI worked out at 14.6 µM.

Turning to `Cc1cc(S(=O)(=O)N/N=C(\Sc2cc(Cl)c(C)cc2S(N)(=O)=O)c2ccc(Cl)cc2)c(Cl)cc1Cl`, the GI50 is over 100 µM and the TGI is over 100 µM.

As for `COc1ccc(C(=O)COc2cccc(/C=C3\Oc4ccc5ccccc5c4C3=O)c2)cc1`, the GI50 is 14.4 µM and the TGI is 42.8 µM.

`COc1ccc(-c2oc3cc(O)c(OC)c(O)c3c(=O)c2OC)cc1O`: the GI50 was 3.43 µM and the TGI is over 100 µM.

Take `Cc1cc(N/N=C/c2nc(-c3ccc(Br)cc3)oc2C)c2cc(Br)ccc2n1`: the GI50 was 19.3 µM and the TGI came to 38.5 µM.

Turning to `Cc1cc(C2CC(O)C(CO)O2)cc2c(=O)[nH]c(N)nc12` (configuration not stated), the GI50 is over 100 µM and the TGI was over 100 µM.

On to `COc1cc(C2=C(c3cn(C)c4ccccc34)COC2=O)cc(OC)c1OC`, for which the GI50 was 0.121 µM and the TGI was found to be 5.42 µM.

On to `CC(C)N=c1cc2n(-c3ccc(Cl)cc3)c3ccccc3nc-2cc1Nc1ccc(Cl)cc1`, for which the GI50 is 1.4 µM and the TGI was over 100 µM.

As for `Cc1cc2c(cc1Cl)SC(=Nc1ccc(Cl)cc1)N(S(=O)(=O)c1ccccc1)S2(=O)=O`, the GI50 was 15.1 µM and the TGI was determined as 29.3 µM.

Turning to `Oc1cn(-c2ccc(Cl)cc2)nc1-c1n[nH]c(=S)n1C1CCCCC1`, the GI50 was 15.5 µM and the TGI is over 100 µM.

As for `CCCCC1(CN2CCOCC2)S/C(=N/c2nc(CC(=O)OCC)cs2)NC1=O` (configuration not stated), the GI50 is 38.9 µM and the TGI is over 100 µM.

`C=C1C(=O)O[C@H]2/C=C(/C)C3=CC(=O)[C@@](C)(C[C@@H](OC(=O)/C(C)=C\C)C12)O3` (some centres not stated) had a TGI of 6.23 µM.

With `O=C(CSC(c1ccccc1)c1ccccc1)N/N=C/c1ccc(Cl)cc1Cl`, the GI50 was 43.6 µM and the TGI is over 100 µM.
